Source: US20070197430A1, “Conjugates And Therapeutic Uses Thereof” (priority 2004, published 2007)
Peptide text beside a SMILES is read from it.

T1: Bcl-w ΔC29 (Homo sapiens, UniProt Q92843)
T1 sequence (Q92843 1-164 limits assumed): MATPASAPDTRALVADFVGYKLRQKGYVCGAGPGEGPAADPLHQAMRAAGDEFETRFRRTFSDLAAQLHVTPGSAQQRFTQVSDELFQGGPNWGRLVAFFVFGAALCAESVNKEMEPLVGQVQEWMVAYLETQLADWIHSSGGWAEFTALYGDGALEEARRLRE


target: T1, Bcl-w ΔC29; test: Alphascreen GST competition assay with biotinylated Bim BH3-26 peptide; assay type: binding; details: Examples 8 and 9

binding affinity for Bcl-w ΔC29 compared to the linear 16-mer, in words	Molecule
slight decrease in binding affinity	CC[C@H](C)[C@H](NC(C)=O)C(=O)N[C@@H](Cc1c[nH]c2ccccc12)C(=O)N[C@@H](C)C(=O)N[C@@H](C)C(=O)N[C@@H](CCC(N)=O)C(=O)N[C@@H](CCC(=O)O)C(=O)N[C@@H](CC(C)C)C(=O)N[C@@H](CCCNC(=N)N)C(=O)N[C@@H](CCCNC(=N)N)C(=O)N[C@H](C(=O)NCC(=O)N[C@@H](CC(=O)O)C(=O)N[C@@H](CCC(=O)O)C(=O)N[C@@H](Cc1ccccc1)C(=O)N[C@@H](CC(N)=O)C(=O)N[C@@H](C)C(N)=O)[C@@H](C)CC [Peptide I] (Ac-IWAAQELRRIGDEFNA-NH2)
drop in binding	CC[C@H](C)[C@H](NC(=O)[C@H](CCCNC(=N)N)NC(=O)[C@H](CCCNC(=N)N)NC(=O)[C@H](CC(C)C)NC(=O)[C@H](CCC(=O)O)NC(=O)[C@H](CCC(N)=O)NC(=O)[C@H](C)NC(=O)[C@@H](NC(=O)[C@H](Cc1c[nH]c2ccccc12)NC(=O)[C@H](C)NC(C)=O)[C@@H](C)CC)C(=O)NCC(=O)N[C@@H](CC(=O)O)C(=O)N[C@@H](CCC(=O)O)C(=O)N[C@@H](Cc1ccccc1)C(=O)N[C@@H](CC(N)=O)C(=O)N[C@@H](C)C(N)=O [O, Ac-AWIAQELRRJGDEFNA-NH2] (Ac-AWIAQELRRIGDEFNA-NH2)
drop in binding	CC[C@H](C)[C@H](NC(C)=O)C(=O)N[C@@H](CCCNC(=N)N)C(=O)N[C@H](C(=O)N[C@@H](C)C(=O)N[C@@H](CCC(N)=O)C(=O)N[C@@H](CCC(=O)O)C(=O)N[C@@H](CC(C)C)C(=O)N[C@@H](CCCNC(=N)N)C(=O)N[C@@H](CCCNC(=N)N)C(=O)N[C@H](C(=O)NCC(=O)N[C@@H](CC(=O)O)C(=O)N[C@@H](CCC(=O)O)C(=O)N[C@@H](Cc1ccccc1)C(=O)N[C@@H](CC(N)=O)C(=O)N[C@@H](C)C(N)=O)[C@@H](C)CC)[C@@H](C)CC [Q] (Ac-IRIAQELRRIGDEFNA-NH2)
drop in binding	CC[C@H](C)[C@H](NC(C)=O)C(=O)N[C@@H](C)C(=O)N[C@H](C(=O)N[C@@H](C)C(=O)N[C@@H](CCC(N)=O)C(=O)N[C@@H](CCC(=O)O)C(=O)N[C@@H](CC(C)C)C(=O)N[C@@H](CCCNC(=N)N)C(=O)N[C@@H](CCCNC(=N)N)C(=O)N[C@H](C(=O)NCC(=O)N[C@@H](CC(=O)O)C(=O)N[C@@H](CCC(=O)O)C(=O)N[C@@H](Cc1ccccc1)C(=O)N[C@@H](CC(N)=O)C(=O)N[C@@H](C)C(N)=O)[C@@H](C)CC)[C@@H](C)CC [P] (Ac-IAIAQELRRIGDEFNA-NH2)

Molecule	binding affinity for Bcl-w ΔC29 compared to the linear 16-mer, in words
CC[C@H](C)[C@H](NC(C)=O)C(=O)N[C@@H](Cc1c[nH]c2ccccc12)C(=O)N[C@H](C(=O)N[C@@H](C)C(=O)N[C@@H](CCC(N)=O)C(=O)N[C@@H](CCC(=O)O)C(=O)N[C@@H](CC(C)C)C(=O)N[C@@H](CCCNC(=N)N)C(=O)N[C@@H](CCCNC(=N)N)C(=O)N[C@H](C(=O)NCC(=O)N[C@@H](CC(=O)O)C(=O)N[C@@H](CCC(=O)O)C(=O)N[C@@H](Cc1ccccc1)C(=O)N[C@@H](C)C(=O)N[C@@H](C)C(N)=O)[C@@H](C)CC)[C@@H](C)CC [Peptide S] (Ac-IWIAQELRRIGDEFAA-NH2)	only slight, if any, loss of binding affinity

same assay, conditions: relative to linear 16-mer

decrease in binding affinity	Molecule
1,000 fold	CC[C@H](C)[C@H](NC(C)=O)C(=O)N[C@@H](Cc1c[nH]c2ccccc12)C(=O)N[C@H](C(=O)N[C@@H](C)C(=O)N[C@@H](CCC(N)=O)C(=O)N[C@@H](CCC(=O)O)C(=O)N[C@@H](CC(C)C)C(=O)N[C@@H](CCCNC(=N)N)C(=O)N[C@@H](CCCNC(=N)N)C(=O)N[C@H](C(=O)NCC(=O)N[C@@H](CC(=O)O)C(=O)N[C@@H](CCC(=O)O)C(=O)N[C@@H](C)C(=O)N[C@@H](CC(N)=O)C(=O)N[C@@H](C)C(N)=O)[C@@H](C)CC)[C@@H](C)CC [Peptide L] (Ac-IWIAQELRRIGDEANA-NH2)
100 fold	CC[C@H](C)[C@H](NC(C)=O)C(=O)N[C@@H](Cc1c[nH]c2ccccc12)C(=O)N[C@@H](C)C(=O)N[C@@H](C)C(=O)N[C@@H](CCC(N)=O)C(=O)N[C@@H](CCC(=O)O)C(=O)N[C@@H](CC(C)C)C(=O)N[C@@H](CCCNC(=N)N)C(=O)N[C@@H](CCCNC(=N)N)C(=O)N[C@H](C(=O)NCC(=O)N[C@@H](CC(=O)O)C(=O)N[C@@H](CCC(=O)O)C(=O)N[C@@H](Cc1ccccc1)C(=O)N[C@@H](CC(N)=O)C(=O)N[C@@H](C)C(N)=O)[C@@H](C)CC [Peptide I] (Ac-IWAAQELRRIGDEFNA-NH2)
about 1000 fold	CC[C@H](C)[C@H](NC(C)=O)C(=O)N[C@@H](Cc1c[nH]c2ccccc12)C(=O)N[C@H](C(=O)N[C@@H](C)C(=O)N[C@@H](CCC(N)=O)C(=O)N[C@@H](CCC(=O)O)C(=O)N[C@@H](C)C(=O)N[C@@H](CCCNC(=N)N)C(=O)N[C@@H](CCCNC(=N)N)C(=O)N[C@H](C(=O)NCC(=O)N[C@@H](CC(=O)O)C(=O)N[C@@H](CCC(=O)O)C(=O)N[C@@H](Cc1ccccc1)C(=O)N[C@@H](CC(N)=O)C(=O)N[C@@H](C)C(N)=O)[C@@H](C)CC)[C@@H](C)CC [Peptide J] (Ac-IWIAQEARRIGDEFNA-NH2)
3 fold	CC[C@H](C)[C@H](NC(C)=O)C(=O)N[C@@H](Cc1c[nH]c2ccccc12)C(=O)N[C@H](C(=O)N[C@@H](C)C(=O)N[C@@H](CCC(N)=O)C(=O)N[C@@H](CCC(=O)O)C(=O)N[C@@H](CC(C)C)C(=O)N[C@@H](CCCNC(=N)N)C(=O)N[C@@H](CCCNC(=N)N)C(=O)N[C@@H](C)C(=O)NCC(=O)N[C@@H](CC(=O)O)C(=O)N[C@@H](CCC(=O)O)C(=O)N[C@@H](Cc1ccccc1)C(=O)N[C@@H](CC(N)=O)C(=O)N[C@@H](C)C(N)=O)[C@@H](C)CC [Peptide K] (Ac-IWIAQELRRAGDEFNA-NH2)
two-fold	CC[C@H](C)[C@H](NC(C)=O)C(=O)N[C@@H](Cc1c[nH]c2ccccc12)C(=O)N[C@H](C(=O)N[C@@H](C)C(=O)N[C@@H](CCC(N)=O)C(=O)N[C@@H](CCC(=O)O)C(=O)N[C@@H](CC(C)C)C(=O)N[C@@H](CCCNC(=N)N)C(=O)N[C@@H](CCCNC(=N)N)C(=O)N[C@H](C(=O)NCC(=O)N[C@@H](CC(=O)O)C(=O)N[C@@H](CCC(=O)O)C(=O)N[C@@H](Cc1ccccc1)C(=O)N[C@@H](CC(N)=O)C(=O)N[C@@H](CC(N)=O)C(N)=O)[C@@H](C)CC)[C@@H](C)CC [Peptide U] (Ac-IWIAQELRRIGDEFNN-NH2)

target: GST tagged Bcl w delta C29 protein (UniProt Q92843); test: competition assay; competitor: biotinylated Bim BH3 peptide; details: not given

IC50 [nM]	Molecule
2.4	Peptide G (constrained) Ac-QAIAQZLRRIGDZFNA-NH2
42	Ac-IAIAQELRRIGDEFNA-NH2 [Peptide P (linear) Ac-…-NH2]
52	Ac-REIGAQLRRMADDLNA-NH2 [Puma peptide Ac-…-NH2]
3.3	Ac-IWIAQELRRIGDEFAA-NH2 [Peptide S (linear) Ac-…-NH2]

Second part, the molecule before the results:

Molecule	IC50 [nM]
Peptide T (linear) Ac-IWIAQELCitCitIGDEFNA-NH2	20
Ac-VQIARKLQAIADQFHR-NH2 [Bmf peptide Ac-…-NH2]	0.25
Ac-IFIAQELRRIGDEFNA-NH2 [Peptide N (linear) Ac-…-NH2]	11
Ac-IWIAQQLRRIGDQFNA-NH2 [Peptide H (linear) Ac-…-NH2]	3.3
Ac-IRIAQELRRIGDEFNA-NH2 [Peptide Q (linear) Ac-…-NH2]	17
